This series deals with patients with myeloid/lymphoid neoplasms with FGFR1 rearrangement. The series can be described thus: Phase 2 clinical study in myeloid/lymphoid neoplasms with FGFR1 rearrangement. Type of series: in vivo, human. To be noted: for evaluable patients who achieved clinical response: preliminary. The source says: All potential subjects must have documentation of an 8p11 translocation known to activate FGFR1 through the site's own cytogenetics laboratory. Once documentation has been provided, the subject undergoes screening to meet the rest of the inclusion/exclusion criteria.
One cycle is defined as 21 days of treatment.
The study population is subjects with myeloid/lymphoid neoplasms with FGFR1 rearrangement. […] In addition, only subjects who are not candidates for stem cell transplantation, or have relapsed after stem cell transplantation and […] lymphocyte infusion and who have progressed and are not candidates for other disease-modifying therapies are eligible for the study.
Additional key exclusion criteria include current evidence of clinically significant corneal disorder/keratopathy (including but not limited to bullous/band keratopathy, corneal abrasion, inflammation/ulceration, and keratoconjunctivitis, etc) or retinal disorder (including but not limited to macular/retinal degeneration, diabetic retinopathy, retinal detachment, etc) as confirmed by ophthalmologic examination.
Study visits may include sample collection for chemistry, hematology, coagulation, lipid panel, endocrine monitoring, and urinalysis testing. […] A sample of bone marrow aspirate or peripheral blood is sent to the central laboratory for confirmation of FGFR1 rearrangement as well as a central pathology laboratory for analysis. In addition, sites provide slides and/or digitized images of bone marrow aspirate at baseline and at the time of achieving response and send them to a central pathology group for review.
Once the subject's eligibility is confirmed through the site's laboratory, screening may begin. […] Safety follow-up is 30 days (+5 days) after the last dose of the study drug. In addition, subjects are followed for overall survival after stopping treatment with study drug. Study participation is expected to average approximately 6 months per individual subject.

With `CCN1C(=O)N(c2c(F)c(OC)cc(OC)c2F)Cc2cnc3[nH]c(CN4CCOCC4)cc3c21` [Compound 1, 3-(2,6-difluoro-3,5-dimethoxyphenyl)-1-ethyl-8-(morpholin-4-ylmethyl)-1,3,4,7-tetrahydro-2H-pyrrolo[3′,2′:5,6]pyrido[4,3-d]pyrimidin-2-one], the “evaluable patients who achieved clinical response” value (13 evaluable patients, 13.5 mg QD) amounted to 85%. For the same molecule, the “Treatment discontinued, reason: Adverse Event, number of patients” value (14 patients treated) is given as 2. In addition, where the note is “14 patients, 13.5 mg QD”, the “TRAE alopecia, %” value turned out to be 29%; the “TRAE diarrhea, %” value came out at 36%; the “TRAE dyspepsia, %” value was found to be 14%; the “TRAE fatigue, %” value is 14%. Further, where the note is “14 patients, 13.5 mg QD”, the “TRAE hyperphosphatemia, %” value came out at 64%; the “TRAE increased blood alkaline phosphatase, %” value was determined as 21%; the “TRAE stomatitis, %” value was found to be 14%; the “patients with grade 3 TRAEs” value was “Three”. In addition, the “tolerability (in words)” value (14 patients, 13.5 mg QD) was “generally well tolerated”. Further, the “patients with fatal TEAEs” value (14 patients, unrelated to treatment) is “Two”. For the setting “of 13 evaluable patients, 13.5 mg QD”, the “evaluable patients who achieved clinical response” value was found to be 11 patients. Moreover, the “response of single patient (PET scan, cytogenetics)” value (person, myeloproliferation and TLL, ZMYM2-FGFR1 fusion, 13.5 mg daily 2 weeks on, 1 week off, at 4 months (beginning of cycle 6)) is “complete cytogenetic remission and complete lymph node remission”.

These data come from patent US12552792B2, “Solid forms of an FGFR inhibitor and processes for preparing the same” (Incyte Corporation, priority 2018, dated 2026).
